This is an account of results in patent US8722910B2, “Diyne compositions” (Evolva AG, priority 2009, dated 2014).

The structures appear in SMILES notation. ≈ marks a conversion by molar mass, not a printed value.

One data set is described as follows: GVS moisture sorption. It counts as physicochemical. Particulars: 25° C. The protocol:
Sorption isotherms were obtained using a Hiden IGASorp moisture sorption analyser, controlled by CFRSorp software. The sample temperature was maintained at 25° C. by a Huber re-circulating water bath. The humidity was controlled by mixing streams of dry and wet nitrogen, with a total flow rate of 250 ml.min-1. The relative humidity (RH) was measured by a calibrated Vaisala RH probe (dynamic range of 0-95% RH), located near the sample. The weight change, (mass relaxation) of the sample as a function of % RH was constantly monitored by the microbalance (accuracy ±0.001 mg). Typically 10-20 mg of sample was placed in a tared mesh stainless steel basket under ambient conditions. The sample was loaded and unloaded at 40% RH and 25° C. (typical
room conditions). A moisture sorption isotherm was performed. The software uses a least squares minimisation procedure together with a model of the mass
relaxation, to predict an asymptotic value. The measured mass relaxation value must be within 5% of that predicted by the software, before the next % RH value is selected. The sample was recovered after completion of the isotherm and re-analysed by XRPD.

Data set [1] relates to C. albicans. In words: Mice infected systemically with C. albicans, oral dosing, kidney burden. It is filed as in vivo. The conditions noted are these: orally twice daily for 3 days, vs untreated. As for the experimental part:
Mice were infected systemically with C. albicans. Compound IV″ was administered orally twice daily for 3 days at 5 mg/kg or 10 mg/kg per dose. Kidney fungal burden decreased by 88% and 94% respectively, compared to the untreated control (as shown in FIG. 12 showing kidney fungal burden as determined by colony forming units (CFU) per gram of homogenised tissue).

A further data set has as its system A. niger. Nature of the data set: Susceptibility of clinical Aspergillus isolates (MIC). The conditions noted are these: 24 h. It is filed as cell-based. The protocol:
(§1) The efficacy of compound IV″ was investigated on 563 clinical isolates of 33 human fungal pathogens. […] For species with n≧10, the MIC90 (MIC, minimal inhibitory concentration) is given as ng/ml. For species with n≦10, the MIC range is given as ng/ml. 24 h and 48 h reads are indicated (Table 1).
(§2) Susceptibilities were determined according to the CLSI reference method M38-A2.

A further data set deals with A. nidulans. Described as above. It is filed as cell-based. The conditions noted are these: 24 h. The protocol: as §1, §2
A further data set concerns A. fumigatus. The data set is described as above. It counts as cell-based. The protocol:
as §1, §2

Another data set concerns A. versicolor. The data set is described as above. It counts as cell-based. As for the experimental part: as §1, §2
The next data set concerns A. flavus. The data set is described as above. It is filed as cell-based. The protocol:
as §1, §2

Another data set deals with A. terreus. The data set is described as above. It counts as cell-based. The protocol:
as §1, §2

For a further data set, the system named is OLE1. Nature of the data set: OLE1 expression by real time PCR. It is filed as cell-based, C. albicans. Particulars: 250 ng/ml; 120 min; vs drug free control. As for the experimental part:
Numbers indicate time intervals in minutes. Expression values are normalized to TUB1 and given as multiples of OLE1 expression at 10 minutes in ethanol.
Similarly, the expression of OLE1 in C. albicans was investigated in response to compound IV″. In the presence of 250 ng/ml Compound IV, OLE1 transcript levels were increased 4-fold after 120 min incubation time compared to the drug free control. […] Expression values are normalised to TUB1 and given as multiples of OLE1 expression at 10 minutes in ethanol.

The subject of a further data set is T. rubrum. Nature of the data set: In vitro antifungal activity vs. dermatophytes (MIC/MFC). It counts as cell-based. The conditions noted are these: T. rubrum (n = 15).
Another data set concerns C. lusitaniae. Nature of the data set: In vitro antifungal activity vs. yeasts (MIC/MFC). It counts as cell-based. Particulars: Clavispora lusitaniae, C. lusitaniae (n = 1).
The test system of a further data set is C. glabrata. In words: In vitro antifungal activity vs. yeasts (MIC/MFC). It is filed as cell-based. Particulars: Nakaseomyces glabratus, C. glabrata (n = 1).
A short description of data set [2]: In vitro Mammalian Cell Cytotoxicity. It counts as cell-based. Particulars: human, HFF cells.
Another data set concerns Trichophyton tonsurans. Nature of the data set: In vitro antifungal activity vs. dermatophytes (MIC/MFC). It counts as cell-based. The conditions noted are these: Trichophyton tonsurans (n = 15).
In data set [3] the test system is Trichophyton mentagrophytes. Nature of the data set: Guinea pig skin infection, topical dosing. It counts as in vivo. The conditions noted are these: guinea pigs. As for the experimental part:
The efficacy of compound III″ in skin infections of small mammals was shown in guinea pigs infected with Trichophyton mentagrophytes on abrased skin. Compound III″ was administered topically at 0.1% or 1% once daily for seven days. Fungal burden decreased by 82% and 98% respectively, compared to the untreated control (see FIG. 13 showing topical fungal burden as determined by culture positive hair removed from the site of infection).

The test system of another data set is M. vanbreuseghemii. In words: In vitro antifungal activity vs. dermatophytes (MIC/MFC). It is filed as cell-based. The conditions noted are these: M. vanbreuseghemii (n = 1).
Data set [4] deals with C. albicans. In words: Time course of the fungicidal effect. It counts as cell-based. Particulars: after 3 hours of incubation. The source says:
Samples were removed periodically, filtered, washed and plated onto nutrient agar.

Data set [5] can be described thus: In vitro Mammalian Cell Cytotoxicity. It counts as cell-based. Particulars: African green monkey, Vero cells.
The next data set relates to C. parapsilosis. In words: In vitro antifungal activity vs. yeasts (MIC/MFC). It is filed as cell-based. Particulars: Lodderomyces parapsilosis, C. parapsilosis (n = 2).
A further data set relates to Epidermophyton floccosum. Nature of the data set: In vitro antifungal activity vs. dermatophytes (MIC/MFC). It is filed as cell-based. The conditions noted are these: Epidermophyton floccosum (n = 15).

In general, MIC50 refers to an inhibitory concentration at the 50% level, which refers to growth in some studies and to a panel of isolates in others. Higher therefore signals lower susceptibility. A word on the MIC: it is the least concentration at which growth counts as inhibited. As a reminder, the MFC is the lowest tested concentration that kills the fungus rather than only halting it. High values mean weaker fungicidal potency, low ones greater fungicidal potency. Broadly, the CC50 is the concentration that lowers cell viability or growth by half.

Regarding `O=C([O-])CCCCCCC/C=C\C#CC#Cc1ccco1.[K+]` [Compound IV″, potassium (Z)-14-(furan-2-yl)tetradeca-9-en-11,13-diynoate], the moisture uptake behaviour entry in “GVS moisture sorption” (GVS) is given as “takes up very little moisture until it reaches approximately 70-80% RH”. Further, the “moisture uptake in weight” value in the data set “GVS moisture sorption” (at 90% RH) amounted to 28%. For the same molecule, the “decrease of kidney fungal burden” value turned out to be 88% in the data set on C. albicans [1] (5 mg/kg per dose) and 94% in the data set on C. albicans [1] (10 mg/kg per dose). Also, the MIC50 with A. niger is 2560 ng/mL; with A. nidulans, 5120 ng/mL; in the data set on A. fumigatus (Aspergillus fumigatus, 24 h), 80 ng/mL; with A. versicolor (Aspergillus versicolor, 24 h), 1280 ng/mL; in the data set on A. flavus (Aspergillus flavus, 24 h) it was > 5120 ng/mL; with A. terreus (Aspergillus terreus, 24 h), 10 ng/mL. Moreover, the “MIC90/MIC range 24 h” value against A. fumigatus (A. fumigatus (n = 40), MIC90, 24 h) was 160 ng/mL; in the data set on A. versicolor (A. versicolor (n = 4), MIC range, 24 h), 80 to 2560 ng/mL; against A. terreus (A. terreus (n = 5), MIC range), 10 to 20 ng/mL. Also, the “MIC90/MIC range 48 h” value is 1280 ng/mL against A. fumigatus (A. fumigatus (n = 40), MIC90, 48 h); 160 to 5120 ng/mL against A. versicolor (A. versicolor (n = 4), MIC range, 48 h); >5120 ng/mL against A. flavus (A. flavus (n = 5), MIC range, 48 h). Besides, the “increase of OLE1 transcript levels” value in the data set on OLE1 is 4 fold.
Regarding `O=C(O)CCCCCCC/C=C\C#CC#Cc1ccco1` [Compound III″], the “MIC90/MIC range 48 h” value was <0.06 ng/mL in the data set with T. rubrum (MIC90, 48 h); <0.06 ng/mL with Trichophyton tonsurans (MIC90, 48 h); 30 ng/mL (≈ 0.106 µM) against M. vanbreuseghemii (48 h); <0.06 ng/mL against Epidermophyton floccosum (MIC90, 48 h). Besides, the minimal inhibitory concentration (MIC) against T. rubrum (Trichophyton rubrum, 96 h, 35° C., 4 days) is < 0.06 ng/mL; with C. lusitaniae (90% inhibition endpoint, read-out: MIC), < 0.06 ng/mL; against C. glabrata (90% inhibition endpoint), 8 ng/mL (≈ 0.0281 µM); against Trichophyton tonsurans (96 h, 35° C., 4 days), < 0.06 ng/mL; in the data set on M. vanbreuseghemii (96 h, 35° C., 4 days), 30 ng/mL (≈ 0.106 µM); against C. parapsilosis (90% inhibition endpoint), 4000 ng/mL (≈ 14.1 µM). Further, the MIC with Epidermophyton floccosum (96 h, 35° C., 4 days) is < 0.06 ng/mL. The minimal fungicidal concentration (MFC) against T. rubrum (Trichophyton rubrum) is < 0.06 ng/mL; in the data set on C. lusitaniae, < 0.06 ng/mL; in the data set on C. glabrata, 500 ng/mL (≈ 1.76 µM); in the data set on Trichophyton tonsurans, < 0.06 ng/mL; against M. vanbreuseghemii, 16000 ng/mL (≈ 56.3 µM); in the data set with C. parapsilosis it was 32000 ng/mL (≈ 113 µM). This molecule had an MFC in the data set with Epidermophyton floccosum of 15 ng/mL (≈ 0.0528 µM). Moreover, the results for the half-maximal cytotoxic concentration (CC50) in data set [2] and in [5] were 75000 ng/mL (≈ 264 µM) and 46000 ng/mL (≈ 162 µM), respectively. Also, the figures for the “decrease of fungal burden (culture positive hair)” value in data set [3] (topically 0.1% once daily for seven days) and in [3] (topically 1% once daily for seven days) were 82% and 98%, respectively. For the same molecule, in the data set on C. albicans [4], the “reduction in C. albicans CFUs” value is on record as > 3 log.
